Measured values as given in PubChem BioAssay (NCI).
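How tested: cells in 96-well plates exposed to compound for 48 hours at five concentrations. TGI denotes the concentration required for complete inhibition of growth.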

Legend:
Assay in all cases: DTP human tumour cell line panel, 48 h
[1] = tested on: 786-0 renal
[2] = tested on: A498 renal
[3] = tested on: A549 NSCLC
[4] = tested on: ACHN renal
[5] = tested on: BT-549 breast
[6] = tested on: CAKI-1 renal
[7] = tested on: CCRF-CEM leukemia
[8] = tested on: COLO 205 colon
[9] = tested on: DU-145 prostate
[10] = tested on: EKVX NSCLC
[11] = tested on: HCT-116 colon
[12] = tested on: HCT-15 colon
[13] = tested on: HL-60(TB) leukemia
[14] = tested on: HOP-62 NSCLC
[15] = tested on: HS 578T breast
[16] = tested on: HT29 colon
[17] = tested on: IGROV1 ovarian
[18] = tested on: KM12 colon
[19] = tested on: LOX IMVI melanoma
[20] = tested on: M14 melanoma
[21] = tested on: MALME-3M melanoma
[22] = tested on: MCF7 breast
[23] = tested on: MDA-MB-231 breast
[24] = tested on: MDA-MB-435
[25] = tested on: MDA-N
[26] = tested on: MOLT-4 leukemia
[27] = tested on: NCI-H226 lung
[28] = tested on: NCI-H23 lung
[29] = tested on: NCI-H522 lung
[30] = tested on: NCI/ADR-RES ovarian
[31] = tested on: OVCAR-4 ovarian
[32] = tested on: OVCAR-5 ovarian
[33] = tested on: OVCAR-8 ovarian
[34] = tested on: PC-3 prostate
[35] = tested on: RXF 393 renal
[36] = tested on: SF-268 CNS
[37] = tested on: SF-295 CNS
[38] = tested on: SF-539 CNS
[39] = tested on: SK-MEL-2 melanoma
[40] = tested on: SK-MEL-28 melanoma
[41] = tested on: SK-MEL-5 melanoma
[42] = tested on: SK-OV-3 ovarian
[43] = tested on: SN12C renal
[44] = tested on: SNB-19 CNS
[45] = tested on: SNB-75 CNS
[46] = tested on: SW-620 colon
[47] = tested on: T-47D breast
[48] = tested on: TK-10 renal
[49] = tested on: U251 CNS
[50] = tested on: UACC-257 melanoma
[51] = tested on: UACC-62 melanoma
[52] = tested on: UO-31 renal
[53] = tested on: HCC-2998 colon
[54] = tested on: K-562 leukemia
[55] = tested on: NCI-H460 lung
[56] = tested on: OVCAR-3 ovarian
[57] = tested on: RPMI-8226 leukemia
[58] = tested on: SR leukemia
[59] = tested on: HOP-92 NSCLC

Measured: TGI

CCOC(=O)C1(C/C=C/CBr)CCc2ccccc2C1=O (stereo not drawn)
35.2 µM: [48]
30.8 µM: [44]
36.7 µM: [33]
28.7 µM: [51]
30.3 µM: [14] | [25] | [46]
36.2 µM: [38]
39.8 µM: [28]
46 µM: [36]
29.1 µM: [4]
42.6 µM: [8]
44 µM: [5]
> 100 µM: [7] | [13] | [26]
27.5 µM: [19]
26.2 µM: [11] | [17]
37.7 µM: [39]
28.2 µM: [20]
35.6 µM: [40]
94.4 µM: [15]
31.9 µM: [29]
29.7 µM: [31]
26.9 µM: [9]
55 µM: [10]
31 µM: [24]
32.9 µM: [37]
33.5 µM: [22]
27.7 µM: [27]
43 µM: [34]
22.6 µM: [45]
52.3 µM: [16]
25.2 µM: [41]
33.1 µM: [42]
41.3 µM: [21]
30.9 µM: [52]
70.2 µM: [32]
28.8 µM: [6]
18.4 µM: [35]
47.5 µM: [12]
34.8 µM: [43] | [47] | [50]
63.5 µM: [30]
38 µM: [2]
56 µM: [23]
30.7 µM: [18]
30.6 µM: [3]
31.2 µM: [1] | [49]

Cc1nc2ccc(NC(=S)Nc3ccccc3)cc2c(=O)n1-c1ccccc1
94.6 µM: [57]
not listed: [3] | [7] | [20] | [38] | [42] | [59]
> 100 µM: all other assays above

CCC(=O)O[C@H]1CC[C@H]2[C@@H]3CCC4=C/C(=N/OC(=O)c5cccc6c(=O)c7ccccc7[nH]c56)CC[C@]4(C)[C@H]3CC[C@]12C
39.3 µM: [38]
41.2 µM: [53]
38.4 µM: [56]
75.5 µM: [39]
99.6 µM: [24]
48.2 µM: [22]
51.4 µM: [19]
54.7 µM: [57]
47 µM: [54]
54.5 µM: [55]
53.4 µM: [26]
57.5 µM: [7]
77.6 µM: [17]
77.7 µM: [2] | [20]
62.2 µM: [52]
36.5 µM: [1]
55.1 µM: [18]
61.9 µM: [12]
74.5 µM: [59]
45.4 µM: [35]
56.1 µM: [29]
not listed: [6] | [9] | [11] | [13] | [21]
> 100 µM: all other assays above

C#CC(C)(C)OC(=O)C(=[N+]=[N-])C(C)=O
not listed: [6] | [8] | [29] | [30] | [31]
> 10 µM: all other assays above
